IC50 data for 21 molecules are collected here from patent US20260125378A2, “Heterocyclic Compounds” (BeOne Medicines I GmbH, priority 2023, published 2026).

In assay [1] the target is T1, Full length DGKζ (in-house protein M1-V929) (Homo sapiens, UniProt Q13574).
T1 construct: His (N); TEV site (N); made in house; host or cells: Sf9 insect cells (Bac-to-Bac baculovirus)
Kind of assay: Biochemical DGK IC50 assay (ADP-Glo, lipid micelle substrate), DGKζ. As to conditions: 1 hour preincubation, 1 hour reaction, room temperature. The procedure, abridged: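 Full-length human DGKζ (M1-V929, His-TEV tagged, Sf9 baculovirus-expressed) with DAG/PS lipid micelle substrate in octyl glucoside, at room temperature in 50 mM HEPES, 10 mM MgCl2, 0.01 mM CaCl2 buffer.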
A general note: ADP-Glo first removes unused ATP, then detects ADP through luciferase.

Assay [2] deals with T2, Full length DGKα (D21-10BG, SignalChem) (Homo sapiens, UniProt P23743).
T2 construct: Full length DGKα (D21-10BG, SignalChem); purchased SignalChem D21-10BG
T2 sequence (P23743 whole entry): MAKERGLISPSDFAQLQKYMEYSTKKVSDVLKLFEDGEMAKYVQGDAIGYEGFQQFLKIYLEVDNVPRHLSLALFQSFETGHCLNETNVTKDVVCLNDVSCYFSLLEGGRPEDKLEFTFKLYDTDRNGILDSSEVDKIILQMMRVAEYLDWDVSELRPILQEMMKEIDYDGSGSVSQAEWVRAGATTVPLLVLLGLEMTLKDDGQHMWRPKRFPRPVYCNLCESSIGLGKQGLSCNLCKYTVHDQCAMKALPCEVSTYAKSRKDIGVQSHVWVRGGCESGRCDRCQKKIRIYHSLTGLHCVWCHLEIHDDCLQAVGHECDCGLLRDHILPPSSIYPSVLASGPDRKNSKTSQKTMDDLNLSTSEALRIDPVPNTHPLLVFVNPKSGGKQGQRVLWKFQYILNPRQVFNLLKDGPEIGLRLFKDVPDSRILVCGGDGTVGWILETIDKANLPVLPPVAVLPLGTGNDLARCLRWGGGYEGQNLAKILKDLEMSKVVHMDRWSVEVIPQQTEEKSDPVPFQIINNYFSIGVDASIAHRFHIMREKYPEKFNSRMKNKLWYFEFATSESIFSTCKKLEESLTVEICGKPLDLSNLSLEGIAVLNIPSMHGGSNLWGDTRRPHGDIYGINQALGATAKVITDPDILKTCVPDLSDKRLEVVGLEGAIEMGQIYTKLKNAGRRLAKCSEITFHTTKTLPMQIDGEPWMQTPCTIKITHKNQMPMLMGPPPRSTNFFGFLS
Put plainly: Biochemical DGK IC50 assay (ADP-Glo, lipid micelle substrate), DGKα. As to conditions: 1 hour preincubation, 1 hour reaction, room temperature. The procedure, abridged:
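Full-length human DGKα with DAG/PS lipid micelle substrate (in octyl glucoside buffer), reacted 1 h at room temperature in 50 mM HEPES, 10 mM MgCl2, 0.01 mM CaCl2, 0.1 mM Na3VO4, 0.01% BSA, 0.005% Tween-20. ADP formed read by ADP-Glo luminescence; IC50 from inhibition across increasing compound concentrations.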

T1 sequence (Q13574 1-929 isoform Q13574-4): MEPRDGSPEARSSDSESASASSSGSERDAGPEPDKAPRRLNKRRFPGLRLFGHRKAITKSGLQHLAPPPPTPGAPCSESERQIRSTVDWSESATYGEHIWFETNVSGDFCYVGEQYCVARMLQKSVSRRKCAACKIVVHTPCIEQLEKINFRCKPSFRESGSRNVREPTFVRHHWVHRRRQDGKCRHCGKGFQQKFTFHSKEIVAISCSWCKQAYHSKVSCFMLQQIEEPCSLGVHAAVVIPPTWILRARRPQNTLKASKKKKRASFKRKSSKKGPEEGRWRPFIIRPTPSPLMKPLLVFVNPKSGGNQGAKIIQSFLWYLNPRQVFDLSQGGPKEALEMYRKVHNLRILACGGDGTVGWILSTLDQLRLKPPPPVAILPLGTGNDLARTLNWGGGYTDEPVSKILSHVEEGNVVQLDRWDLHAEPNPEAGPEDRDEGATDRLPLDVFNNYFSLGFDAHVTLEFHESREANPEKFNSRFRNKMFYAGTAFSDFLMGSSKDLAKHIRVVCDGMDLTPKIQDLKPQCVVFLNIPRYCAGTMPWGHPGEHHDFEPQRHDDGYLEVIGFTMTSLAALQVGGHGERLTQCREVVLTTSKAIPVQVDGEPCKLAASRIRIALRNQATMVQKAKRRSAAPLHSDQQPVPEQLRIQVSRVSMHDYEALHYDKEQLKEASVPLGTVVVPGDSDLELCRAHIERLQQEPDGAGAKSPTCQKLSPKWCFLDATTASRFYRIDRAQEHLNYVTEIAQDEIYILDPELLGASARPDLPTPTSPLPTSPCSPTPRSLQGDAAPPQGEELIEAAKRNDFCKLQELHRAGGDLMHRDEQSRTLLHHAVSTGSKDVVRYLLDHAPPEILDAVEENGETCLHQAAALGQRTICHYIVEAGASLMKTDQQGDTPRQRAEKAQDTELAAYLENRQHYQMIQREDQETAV

`CCn1c(CC#N)nc2c(N3C[C@@H](C)N(C(C)c4cc(Cl)c5c(c4)OC(C)(C)O5)C[C@@H]3C)nc(=O)n(C)c21` (stereo partly drawn) [Compound A171, 2-(6-((2S,5R)-4-(1-(7-chloro-2,2-dimethylbenzo[d][1,3]dioxol-5-yl)ethyl)-2,5-dimethylpiperazin-1-yl)-9-ethyl-3-methyl-2-oxo-3,9-dihydro-2H-purin-8-yl)acetonitrile]: the IC50 in assay [1] worked out at 107 nM; in assay [2] it was 65800 nM.

As for `CCn1c(CC#N)nc2c(N3C[C@@H](C)N(C(C)c4ccc5nc(C)sc5c4)C[C@@H]3C)nc(=O)n(C)c21` (single isomer, unassigned) [Compound A56b], the figures for the IC50 in assay [1] and in assay [2] were 23 nM and 50900 nM, respectively.

Turning to `CC(c1ccc2nccnc2c1)N1C[C@H](C)N(c2nc(=O)n(C)c3c2nc(CC#N)n3C)C[C@H]1C` (stereo partly drawn) [Compound A48, 2-(6-((2S,5R)-2,5-dimethyl-4-(1-(quinoxalin-6-yl)ethyl)piperazin-1-yl)-3,9-dimethyl-2-oxo-3,9-dihydro-2H-purin-8-yl)acetonitrile], the figures for the IC50 in assay [1] and in assay [2] were 29 nM and 44600 nM, respectively.

As to `CC(c1cc2c(cc1F)OCC(C)(C)O2)N1C[C@H](C)N(c2nc(=O)n(C)c3c2nc(CC#N)n3C)C[C@H]1C` (single isomer, unassigned) [Compound A69a], the concentration for half-maximal inhibition (IC50) in assay [1] came out at 2 nM; in assay [2], 1190 nM.

As to `CC[C@@H]1CN(c2nc(=O)n(C)c3c2nc(CC#N)n3C)[C@@H](C)CN1C(C)c1ccc2c(n1)OC(C)(C)CO2` (single isomer, unassigned) [Compound A159a], the IC50 in assay [1] turned out to be 25 nM; in assay [2] it was 27400 nM.

Regarding `CC(c1ccc2c(c1)OCCO2)N1C[C@H](C)N(c2nc(=O)n(C)c3c2nc(CC#N)n3C)C[C@H]1C` (single isomer, unassigned) [Compound A58a], the concentration for half-maximal inhibition (IC50) in assay [1] was determined as 20 nM; in assay [2], 13300 nM.

In the case of `CC(c1cccc(C(F)(F)F)c1)N1C[C@H](C)N(c2nc(=O)n(C)c3c2nc(CC#N)n3C)C[C@H]1C` (stereo partly drawn) [Compound A41, 2-(6-((2S,5R)-2,5-dimethyl-4-(1-(3-(trifluoromethyl)phenyl)ethyl)piperazin-1-yl)-3,9-dimethyl-2-oxo-3,9-dihydro-2H-purin-8-yl)acetonitrile], the IC50 in assay [1] was determined as 16 nM; in assay [2] it was 9700 nM.

Regarding `COC[C@H]1CN(C(C)c2ccc3c(c2)OC(C)(C)CO3)[C@H](C)CN1c1nc(=O)n(C)c2c1nc(CC#N)n2C` (single isomer, unassigned) [Compound A12a], the concentration for half-maximal inhibition (IC50) in assay [1] worked out at 2.7 nM; in assay [2] it was 18800 nM.

Take `CCn1c(CC#N)nc2c(N3C[C@@H](C)N(C(C)c4ccc5c(n4)C(C)(C)CO5)C[C@@H]3C)nc(=O)n(C)c21` (stereo partly drawn) [Compound A181, 2-(6-((2S,5R)-4-(1-(3,3-dimethyl-2,3-dihydrofuro[3,2-b]pyridin-5-yl)ethyl)-2,5-dimethylpiperazin-1-yl)-9-ethyl-3-methyl-2-oxo-3,9-dihydro-2H-purin-8-yl)acetonitrile]: the IC50 is 17 nM in assay [1] and greater than 150000 nM in assay [2].

With `CCn1c(CC#N)nc2c(N3C[C@@H](C)N(C(C)c4ccc5c(c4)OC(C)(CC)O5)C[C@@H]3C)nc(=O)n(C)c21` (stereo partly drawn) [Compound A168, 2-(9-ethyl-6-((2S,5R)-4-(1-(2-ethyl-2-methylbenzo[d][1,3]dioxol-5-yl)ethyl)-2,5-dimethylpiperazin-1-yl)-3-methyl-2-oxo-3,9-dihydro-2H-purin-8-yl)acetonitrile], the figures for the IC50 in assay [1] and in assay [2] were 26 nM and 64300 nM, respectively.

As to `CC(c1cc(F)c2c(c1)OC(C)(C)CO2)N1C[C@H](C)N(c2nc(=O)n(C)c3c2nc(CC#N)n3C)C[C@H]1C` (mixture of isomers) [Compound A68, 2-(6-((2S,5R)-4-(1-(8-fluoro-3,3-dimethyl-2,3-dihydrobenzo[b][1,4]dioxin-6-yl)ethyl)-2,5-dimethylpiperazin-1-yl)-3,9-dimethyl-2-oxo-3,9-dihydro-2H-purin-8-yl)acetonitrile], the 50% inhibitory concentration (IC50) in assay [1] was 7 nM; in assay [2], 43800 nM.

In the case of `CCn1c(CC#N)nc2c(N3C[C@@H](C)N(C(C)c4cccc(C5CC5)c4)C[C@@H]3C)nc(=O)n(C)c21` (stereo partly drawn) [Compound A125, 2-(6-((2S,5R)-4-(1-(3-cyclopropylphenyl)ethyl)-2,5-dimethylpiperazin-1-yl)-9-ethyl-3-methyl-2-oxo-3,9-dihydro-2H-purin-8-yl)acetonitrile], the figures for the half-inhibitory concentration (IC50) in assay [1] and in assay [2] were 42 nM and greater than 150000 nM, respectively.

In the case of `CCn1c(CC#N)nc2c(N3C[C@@H](C)N(C(C)c4ccc5ccn(C)c(=O)c5c4)C[C@@H]3C)nc(=O)n(C)c21` (stereo partly drawn) [Compound A92, 2-(6-((2S,5R)-2,5-dimethyl-4-(1-(2-methyl-1-oxo-1,2-dihydroisoquinolin-7-yl)ethyl)piperazin-1-yl)-9-ethyl-3-methyl-2-oxo-3,9-dihydro-2H-purin-8-yl)acetonitrile], the figures for the IC50 in assay [1] and in assay [2] were 123 nM and greater than 150000 nM, respectively.

Regarding `CC[C@@H]1CN(c2nc(=O)n(C)c3c2nc(CC#N)n3C)[C@@H](C)CN1C(C)c1ccc2ncc(C)nc2c1` (single isomer, unassigned) [Compound A50b], the IC50 in assay [1] was 332 nM; in assay [2] it was 13600 nM.

Regarding `CCn1c(CC#N)nc2c(N3C[C@@H](C)N(C(C)c4cc5c(cc4F)OC(C)(C)CO5)C[C@@H]3C)nc(=O)n(C)c21` (single isomer, unassigned) [Compound A156b], the IC50 stood at 6 nM in assay [1] and 14100 nM in assay [2].

As to `CCn1c(CC#N)nc2c(N3C[C@@H](C)N(C(C)c4ccc(C)cc4C(F)(F)F)C[C@@H]3C)nc(=O)n(C)c21` (single isomer, unassigned) [Compound A116b], the 50% inhibitory concentration (IC50) in assay [1] was 228 nM; in assay [2] it was greater than 150000 nM.

As to `CCn1c(CC#N)nc2c(N3C[C@@H](C)N(C(C)c4ccnc(N5CCC5)c4)C[C@@H]3C)nc(=O)n(C)c21` (stereo partly drawn) [Compound A121, 2-(6-((2S,5R)-4-(1-(2-(azetidin-1-yl)pyridin-4-yl)ethyl)-2,5-dimethylpiperazin-1-yl)-9-ethyl-3-methyl-2-oxo-3,9-dihydro-2H-purin-8-yl)acetonitrile], the half-inhibitory concentration (IC50) in assay [1] is 212 nM; in assay [2], greater than 150000 nM.

Turning to `Cc1cccc(C(C)N2C[C@H](C)N(c3c(F)c(=O)n(C)c4c3nc(CC#N)n4C)C[C@H]2C)c1C(F)(F)F` (single isomer, unassigned) [Compound A17a], the IC50 was 133 nM in assay [1] and 1460 nM in assay [2].

Regarding `COCc1cc(F)ccc1C(C)N1C[C@H](C)N(c2nc(=O)n(C)c3c2nc(CC#N)n3C)C[C@H]1C` (single isomer, unassigned) [Compound A27b], the 50% inhibitory concentration (IC50) in assay [1] was 15 nM; in assay [2], 99500 nM.

Consider `CCn1c(CC#N)nc2c(N3C[C@@H](C)N(C(C)c4ccc5c(c4)OC(F)(F)CO5)C[C@@H]3C)nc(=O)n(C)c21` (single isomer, unassigned) [Compound A80b], for which the values for the IC50 in assay [1] and in assay [2] were 664 nM and greater than 150000 nM, respectively.

With `Cc1ccc(C(C)N2C[C@H](C)N(c3c(F)c(=O)n(C)c4c3nc(CC#N)n4C)C[C@H]2C)c(C(F)(F)F)c1` (single isomer, unassigned) [Compound A15a], the half-inhibitory concentration (IC50) in assay [1] is 1410 nM; in assay [2], greater than 10000 nM.

A word on the IC50: it is the concentration that gives 50% inhibition. A low value points to greater potency.
